What was measured:
Shp2-WT = molecular target: T1, Shp2-WT (Homo sapiens, UniProt Q06124); assay: Surface plasmon resonance analysis, Shp2-WT; assay type: binding; settings: SPR, Fumos immobilized, Shp2-WT injected
T1 sequence (Q06124 1-593): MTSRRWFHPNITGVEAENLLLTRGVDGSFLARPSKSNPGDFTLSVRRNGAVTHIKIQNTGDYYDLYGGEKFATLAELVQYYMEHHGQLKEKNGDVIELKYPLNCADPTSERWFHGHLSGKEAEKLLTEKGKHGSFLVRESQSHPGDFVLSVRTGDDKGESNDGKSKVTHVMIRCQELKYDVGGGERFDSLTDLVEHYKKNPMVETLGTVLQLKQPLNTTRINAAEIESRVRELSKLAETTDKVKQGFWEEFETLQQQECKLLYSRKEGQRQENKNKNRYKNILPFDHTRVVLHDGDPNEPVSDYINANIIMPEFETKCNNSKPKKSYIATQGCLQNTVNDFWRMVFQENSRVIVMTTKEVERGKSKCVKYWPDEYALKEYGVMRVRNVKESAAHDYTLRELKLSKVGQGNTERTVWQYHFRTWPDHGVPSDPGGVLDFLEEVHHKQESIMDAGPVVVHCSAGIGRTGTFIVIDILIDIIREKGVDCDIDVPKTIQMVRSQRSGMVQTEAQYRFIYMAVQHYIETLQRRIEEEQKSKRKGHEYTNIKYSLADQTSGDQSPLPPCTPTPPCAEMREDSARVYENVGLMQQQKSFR
Description: One small molecule (10 mM) was spotted on the 3D sensor chip. Positive and negative controls on the chip were monitored for binding kinetics to verify immobilization. All experiments were performed using Plexera’s Plex Array SPRi instrumentation, visualized using Instrument Control software (ICS) and analyzed using Plexera Data Explorer software.
Proteins were injected in the following order: Shp2 full-length protein (12 nM, 36 nM, 108 nM, 324 nM), Shp2 Y279A protein (35 nM, 70 nM,140 nM, 280 nM, 560 nM). Each protein was injected at a flow rate of 1 μl/sec. The association duration was 200 sec and dissociation duration was 300 sec. Regeneration between injections was performed with 600 μl of 10 mM glycine-HCl, pH = 2.0. The data were analyzed by Plexera Data Explorer software.

Shp2 = molecular target: T2, Shp2 (Homo sapiens, UniProt Q06124); assay: Irreversibility assessment (dilution and excess substrate); assay type: biochemical; settings: preincubated 30 min, then 40-fold substrate
T2 sequence (Q06124 1-593): T1 sequence (Q06124 1-593)
Description: Recombinant Shp2 was mixed with the inhibitor at a final concentration of 100-fold IC50 or with vehicle control (DMSO) respectively. Sodium orthovanadate was used as a positive control compound. After incubation at room temperature for 30 min, the Enzyme-inhibitor was diluted to one-fold and mixed with 40-fold pNPP ([…]) for enzymatic activity.

[1] = system: ERK1/2 phosphorylation in MDA-MB-231 cells; assay: EGF-induced ERK1/2 activation, Western blot, MDA-MB-231; assay type: cell-based, human; settings: MDA-MB-231 (K-Ras G13D); 10-40 μM for 24 h, EGF 20 ng/ml 5 min
Excerpt: After centrifugation, the supernatant was collected.

[2] = system: EGF-induced Ras activation in HeLa cells; assay: Ras activation assay (GST-RBD pull-down), HeLa; assay type: cell-based, human; settings: Fumos 20 μM
Description: Active Ras was detected by use of the RBD of raf-1 fused to glutathione S-transferase (GST) as described previously. Cells were lysed in MLB buffer (25 mM Hepes, 150 mM NaCl, 1% Nonidet P-40, 0.25% sodium deoxycholate, 10% glycerol, 25 mM NaF, 1 mM Na3VO4, 10 mM MgCl2, 1 mM EDTA, pH 7.5) supplemented with complete EDTA-free protease inhibitor mixture. Total 500 μg cell lysate was incubated with 10–20 μg of GST-RBD bound beads(Merck) overnight at 4 °C. The beads were pelleted by centrifugation and washed three times with MLB buffer. The beads were boiled in SDS loading buffer and subjected to electrophoresis, followed by immunoblotting with an anti-Ras antibody (Santa Cruz Biotechnology).

[3] = system: Gab1-Shp2 association in HEK293T cells; assay: Gab1-Shp2 co-immunoprecipitation, HEK293T; assay type: cell-based, human
Description: Figure 3 Fumos inhibits Gab1-Shp2 association. HEK293T cells were serum-starved for 18 h, preincubated with or without Fumos (20 μM 24 h), and then treated with EGF (20 ng/ml, 5 min). (a) Shp2 was immunoprecipitated from cell lysate supernatants. (b) Gab1 was immunoprecipitated from cell lysate supernatants. Immunoprecipitates were analyzed by immunoblotting with antibodies to Gab1, RasGAP, pY and Shp2. (c) Densitometric analysis of p-Gab1/Shp2 ratio in the Western blots. **p = 0.002 < 0.01/F = 37 vs EGF. (d) Densitometric analysis of RasGAP/Gab1 ratio in the Western blots. **p < 0.01/F = 30 vs EGF, one-way ANOVA followed by Tukey’s test. Bars represent mean ± S.E.M. values from three experiments.
Cells were washed with cold PBS twice and lysed in cell lysis buffer for 10 min on ice. Then the lytic cells were centrifugated with 13,000 g for 10 min at 4 °C. The supernatant was transferred to a fresh conical centrifuge tube on ice and added 1 μg of the appropriate control IgG, together with 20 μl of resuspended volume of Protein A/G PLUS-Agarose (Santa Cruz Biotechnology, CA), then incubated at 4 °C for 30 min. The pellet beads were centrifugated at 1,000 g for 5 min at 4 °C. The supernatant with approximately 100–500 μg total cellular protein was incubated with 2 μg primary antibody against Shp2 or Gab1 for 7 h at 4 °C. Then lysates containing protein-antibody complexes were incubated with 20 μl of Protein A/G PLUS-Agarose at 4 °C on a rotating device overnight. Immunoprecipitates were collected by centrifugation at 2,500 rpm and washed for 4 times with 1 ml lysis buffer, then suspended in the loading buffer, boiled, and analyzed by SDS-PAGE.

MDA-MB-231 cells = assay: Transwell invasion assay, MDA-MB-231; assay type: cell-based, human; settings: 4 and 14 μM, 24 h, EGF in lower chamber
Description: The invasion assay was performed in Transwell chambers according to Corning methods. Briefly, the upper chamber of a Transwell insert ([…] pore size) was coated with 40 μl 1:6 mixture of Matrigel (BD Biosciences, Bedford): Opti-MEM (Invitrogen) for MDA-MB-231 and 40 μl 1:12 mixture of Matrigel: Opti-MEM (Invitrogen) for HeLa cells and dried for 2 h at 37 °C. The lower chamber was filled with serum-free media containing 10 ng/ml EGF. Cells were seeded into upper chamber at a density 5 × 10^4 cells/ml per well in serum-free media. Cells were treated with series concentrations of Fumos for 24 h. The top aspect of the membrane was gently swabbed the inside of each insert using cotton swabs, and cells that invaded on the lower surface of the membrane were fixed using methanol and stained with crystal violet (Beyotime Institute of Biotechnology). Random fields were counted and photographed by microscope (Olympus).

CC[C@@H](C)C[C@@H](C)/C=C(C)/C=C/C=C/C=C(\C)C(=O)c1c(O)c(-c2ccc(O)cc2)cn(O)c1=O [Fumos, Fumosorinone]
Ka (association rate) (Shp2-WT): 7.06 × 10^5 M^−1 S^−1
Kd (Shp2-WT): 40 nM
Kd (dissociation rate) (Shp2-WT): 2.85 × 10^−2 S^−1
recovery of Shp2 enzyme activity after dilution and excess substrate (reversibility) (Shp2): recovered
EGF-induced ERK1/2 phosphorylation [1]: the decrease was not observed
EGF-induced endogenous Ras activation [2]: inhibited
RasGAP coimmunoprecipitated with Gab1 ([3]; EGF-stimulated, Fumos 20 μM 24 h): dramatically increased
EGF-stimulated Gab1-Shp2 association (Gab1 in Shp2 immunoprecipitates) ([3]; Fumos 20 μM 24 h, EGF 20 ng/ml 5 min): much less Gab1 proteins were found
Gab1-Shp2 association without EGF ([3]; Fumos alone): induces Gab1-Shp2 association
tyrosine-phosphorylation of Gab1 ([3]; Fumos alone, no EGF): increased
cell invasion (Transwell) (MDA-MB-231 cells): significantly inhibited
